In patent publication EP0459830A1, “Pharmacologically active CNS compounds” (THE WELLCOME FOUNDATION LIMITED, priority 1990, dated 1991):

Columns and labels:
[1] = tested on: veratrine-evoked release of glutamate from rat brain slices; assay: veratrine-evoked release of glutamate from rat brain slices; assay type: cell-based; conditions: read-out: IC50(μM) Glutamate Release (P95 limits)
Experimental: (§1) Compounds of formula (Ia) were tested for their effect on veratrine-evoked release of glutamate from rat brain slices according to the protocol described in Epilepsia 27(5): 490-497, 1986. The protocol for testing for inhibition of DHFR activity was a modification of that set out in Biochemical Pharmacology Vol.20 pp 561-574, 1971.
(§2) The results are given in Table 1, the IC₅₀ being the concentration of compound to […] 50% of DHFR enzyme activity.

Rat Liver DHFR = target: T1, Rat Liver DHFR (Rattus norvegicus, UniProt Q920D2); assay: inhibition of DHFR activity; assay type: biochemical; conditions: rat liver DHFR enzyme activity; read-out: IC50(μM) Rat Liver DHFR (P95 limits)
T1 construct: from tissue; host or cells: rat liver
T1 sequence (Q920D2 1-187): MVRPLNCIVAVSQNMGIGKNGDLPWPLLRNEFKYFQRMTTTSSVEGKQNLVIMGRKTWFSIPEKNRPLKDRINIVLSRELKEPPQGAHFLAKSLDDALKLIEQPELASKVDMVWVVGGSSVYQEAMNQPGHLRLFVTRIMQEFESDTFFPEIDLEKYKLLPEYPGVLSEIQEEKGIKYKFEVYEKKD
Experimental: as §1, §2

[2] = tested on: release of the excitatory amino acids, glutamate and aspartate; conditions: Leach et al Epilepsia 27, 490-497 1986; Miller et al 1987; cited from earlier work

## Cc1c(N)nc(N)nc1-c1ccc(Cl)cc1 [*, 2,4-Diamino-5-methyl-6-(4-chlorophenyl)pyrimidine]
[1]
  IC50: > 10 µM
Rat Liver DHFR
  IC50: > 55 µM

## Nc1cc(-c2cccc(Cl)c2Cl)nc(N)n1 [Example 1, 2,4-Diamino-6-(2,3-dichlorophenyl)pyrimidine]
[1]
  IC50: 10 µM
Rat Liver DHFR
  IC50: < 100 µM

## Nc1cc(-c2ccccc2Cl)nc(N)n1 [Example 2, 2,4-Diamino-6-(2-chlorophenyl)pyrimidine]
[1]
  IC50: 10 µM
Rat Liver DHFR
  IC50: > 100 µM

## Nc1cc(-c2ccc(Cl)cc2Cl)nc(N)n1 [Example 3, 2,4-Diamino-6-(2,4-Dichlorophenyl)pyrimidine]
[1]
  IC50: > 10 µM
Rat Liver DHFR
  IC50: < 100 µM

## Nc1cc(-c2cccc3ccccc23)nc(N)n1 [Example 4, 2,4-Diamino-6-(1-naphthyl)pyrimidine]
[1]
  IC50: > 10 µM
Rat Liver DHFR
  IC50: 100 µM

## Nc1nnc(-c2cccc(Cl)c2Cl)c(N)n1 [lamotrigine, 3,5-diamino-6-(2,3-dichlorophenyl)-1,2,4-triazine]
[2]
  inhibition of release of glutamate and aspartate: inhibit the release of the excitatory amino acids, glutamate and aspartate
